# Measurements as given in US4863969A, “Treatment of premalignant lesions and certain malignant tumors” (priority 1985, dated 1989).
# Where two headings read alike, the source gives them in different places.
# Legend:
# [1] = system: squamous metaplasia of the vaginal epithelium; assay: Antimetaplastic activity in ovarectomized rats (hormone-induced squamous metaplasia, vaginal smear); format: in vivo, female Holtzmann rats; conditions: for Relative activity (antimetaplastic): all-trans vitamin A acid = 100%; for Antimetaplastic effect (average effective / protective dosage): oral, read 2 days after administration, area method of Behrens and Karber
# Protocol: (C) The antimetaplastic activity of compound Ia was determined in rats according to the following method. Female Holtzmann rats weighing approximately 100 g were ovarectomized under Thiogenal narcosis after an adaptation period of 8 days and were used in the experiment after a further 14 days. In each case two animals were placed in a cage and had free access to feed which contained approximately 2000 IU of analytically determined vitamin A. Prior to the oral administration of the test compound the animals were treated subcutaneously each day for 6 successive days with the hormone mixture of 1 μg of estradiol benzoate and 250 μg of testosterone propionate dissolved in 0.1 ml of sesame oil. The parenteral hormone administration led to the formation of a clear granular stage in the vaginal smear, i.e. a squamous metaplasia. 2 days after the oral administration of the test substance the result of the reaction was again read off on the vaginal epithelium. The area method according to Behrens and Karber was employed to calculate the average effective dosages.
# [2] = Tolerability and toxicity; format: in vivo; conditions: given intraperitoneally and given orally
# [3] = Rydell et al. 1982; Kistler 1981; Loeliger et al. 1980; cited from earlier work
# [4] = cited from earlier work
# [5] = Triglyceride / lipid value in blood plasma of rats; format: in vivo, albino rats
# Protocol: In order to detect this activity a dosage of compound Ia was administered five times per dosage to 5 male and 5 female albino rats weighing approximately 150 g by means of a probang within 2 days in intervals of in each case 18 and 6 hours. 18 hours after the last application 1-1,2 ml of blood plasma were removed retroorbitally from the experimental animals. The triglyceride value was determined by enzymatic cleavage of the triglyceride with subsequent determination of the resulting glycerine (colour reaction) by means of Periodchrom triglyceride GPO-PAP.
# [6] = system: transplantable chondrosarcoma of the rat; assay: Activity on the transplantable chondrosarcoma of the rat; format: in vivo, albino rats; conditions: 400 mg/kg p.o.
# Protocol: (B) The activity of compond Ia on tumors was, furthermore, determined on the transplantable chondrosarcoma of the rat according to the following method. The solid tumor of a donor animal was finely minced and suspended in phosphate-buffered sodium chloride solution. 0.5 ml of the 30% tumor suspension was implanted subcutaneously into albino rats. […] Each treatment group embraced 7 rats. Suspensions of compound Ia in arachis oil were administered orally five times per week for 4 weeks. The tumor areas were determined on days 1, 15 and 29. The largest (D) and the smallest (d) diameter of the tumors were determined with the aid of a vernier caliper and the product D·d was determined. The change in this area size was calculated in percentages.
# [7] = system: Trachea (rats)/hyperplasia induced by dimethylbenzanthracene; assay: Chemically-induced precancerous tissue changes in trachea organ culture (dimethylbenzanthracene-induced hyperplasia); format: cell-based; conditions: Rattus norvegicus, read-out: Mitotic index, relative to dimethylbenzanthracene control; for activity at 1 µM: 10^-6 M; for activity at 0.1 µM: 10^-7 M; for activity at 0.01 µM: 10^-8 M; for activity at 0.001 µM: 10^-9 M
# Protocol: (§1) (D) The activity of compound Ia on chemically-induced precancerous tissue changes was, furthermore, determined in vitro according to the following method. In this experiment prostate glands of mice and trachea of rats cultivated in organ cultures served as the experimental models. In tissues of organ cultures carcinogenic substances bring about after a short period precancerous changes in the form hyperplasias as well as metaplasias and dysplasias. Retinoids, which are administered simultaneously with the carcinogenic compounds or after these, prevent the hyperplasia or metaplasia and dysplasia or even cause these to regress.
# (§2) The prostate glands consist of alveoli lined with one row of secretory cells and separated by a thin connective tissue. They were removed from mice aged 3-5 months and cut into lobules of approximately 1.5×1.5×2.0 mm. At least six of these lobules were placed on filter paper and transferred on a metal lattice into small culture chambers. Two of these culture chambers were enclosed in a Petri dish lined with a moist filter paper. The culture chambers were filled with nutrient medium up to the height of the lattice so that the explants were moistened well with the nutrient medium, but were not immersed in this. At the nutrient medium there was used customary Medium 199 supplemented by the addition of 15% serum from newly born calves. The carcinogen (3-methylcholanthrene) was added to this prior to the incubation in a concentration of 4-5 μg/ml of nutrient medium. The cultures were then incubated at 37.5° C. During the incubation they were kept in a Macintosh flask which was gassed with a mixture of 5% CO2 +95% oxygen. In a first series of experiments the carcinogen and compound Ia were combined and the tissue was cultivated for 10-12 days. In a second series the explants were pre-treated with the carcinogen for 10-12 days and thereafter placed in a nutrient medium, which only contained compound Ia, for 4-7 days. The concentration of compound Ia lay in the range of 10^-9 to 10^-6 Mol.
# Trachea of rats are cultivated in the same manner and treated with dimethylbenzanthracene as the carcinogen. The mitotic index serves as the parameter of the hyperplasia. With retinoid the mitotic index and the hyperplasias, respectively, are smaller. The results are compiled in Tables IV (prostate) and V (trachea).
# [8] = system: Prostate (mouse)/hyperplasia induced by methylcholanthrene; assay: Chemically-induced precancerous tissue changes in prostate gland organ culture (methylcholanthrene-induced hyperplasia); format: cell-based; conditions: read-out: Hyperplastic alveoli, relative to methylcholanthrene control; for activity at 1 µM: 10^-6 M; for activity at 0.1 µM: 10^-7 M; for activity at 0.01 µM: 10^-8 M; for activity at 0.001 µM: 10^-9 M
# Protocol: as §1, §2
# The activity of compound Ia is quantified by counting the normal and hyperplastic alveoli in sections of the explant. The results are expressed in percentages of hyperplastic alveoli of the total number of alveoli, for example 120 hyperplastic alveoli out of a total of 200 correspond to 60%. In explants treated with retinoids the percentage is usually small. […] The percentage of hyperplastic alveoli is reduced to 20/60=33%.
# [9] = system: chemically-induced breast tumors; assay: Prevention of chemically-induced (dimethyl-benz(a)anthracene) breast tumors in female rats; format: in vivo, female Sprague-Dawley rats; conditions: in feed, 11 weeks
# Protocol: (A) The activity of compound Ia with respect to the prevention of chemically-induced breast tumors was determined according to the following procedure. Female Sprague-Dawley rats were used in this experiment. The experimental animals were kept under temperature-controlled and light-controlled conditions and had free access to drinking water and feed. At the age of 50 days 15 mg of dimethyl-benz(a)anthracene dissolved in arachis oil were administered to each rat by means of a probang. The treatment with compound Ia began 1 day after the administration of the carcinogen. The body weight of the experimental animals was recorded and the tumors were palpated weekly and measured with a vernier caliper. The volumes were calculated according to the formula D/2·d^2 in which D represents the larger diameter of the tumor ellipsoid and d represents the smaller diameter of the tumor ellipsoid. After 11 weeks the experiment was terminated and evaluated. In this experiment there were used in addition to 30 control animals, which received exclusively normal feed, the following three groups of experimental animals:
# 1. 33 rats to which were administered daily 30 mg/kg of compound Ia mixed with the feed.
# 2. 36 rats to which were administered daily 90 mg/kg of compound Ia mixed with the feed.
# 3. 33 rats to which were administered daily 270 mg/kg of compound Ia mixed with the feed.
# The feed mixture was adjusted weekly according to the body weight and the total food intake.
# [10] = simultaneous treatment, dimethylbenzanthracene (mitotic index 2.6) = 100%
# [11] = subsequent treatment, dimethylbenzanthracene (mitotic index 3.1) = 100%
# [12] = simultaneous treatment, methylcholanthrene (47% hyperplastic alveoli) = 100%
# [13] = subsequent treatment, methylcholanthrene (65% hyperplastic alveoli) = 100%
smiles,measurement,setting,value
"CC1=C(/C=C/C(C)=C/C=C/C(C)=C/C(=O)O)C(C)(C)CCC1 [all-trans vitamin A acid, reference compound]",Relative activity (antimetaplastic),[1],100%
same,Antimetaplastic effect (average effective / protective dosage),[1],35.7 µg
"CC(=Cc1ccccc1)c1ccc2c(c1)C(C)(C)CCC2(C)C [compound of formula I, 1,2,3,4-tetrahydro-1,1,4,4-tetramethyl-6-(alpha-methylstyryl)naphthalene]",Toxicity,[2],relatively non-toxic
same,Biological activity in preliminary screening tests,[3],biologically inactive
"C/C(=C\c1ccccc1)c1ccc2c(c1)C(C)(C)CCC2(C)C [Compound Ia, 1,2,3,4-tetrahydro-1,1,4,4-tetramethyl-6-[(E)-alpha-methylstyryl]naphthalene]",Hypervitaminosis A phenomena,[4]; e.g. manifestations on skin and mucous membranes,"does not exhibit, in particular, any hypervitaminosis A phenomena"
same,Tolerability / toxic symptoms,[4]; in the therapeutically indicated dosages,well tolerated and that no toxic symptoms appear
same,Teratogenicity,[4]; in vivo,non-teratogenic
same,Skin irritation,[4]; skin,not irritating to the skin
same,Effect on the lipid value in blood plasma,[5]; as a sole therapeutically active retinoid,no increase in the lipid value in blood plasma
same,Lipid-lowering activity,[5]; blood plasma,possesses a lipid-lowering activity
same,Triglyceride value in blood plasma,"[5]; female rats, 10 mg/kg by probang, five times within 2 days (control 69 ± 28)",56 ± 25 mg/100 ml
same,Triglyceride value in blood plasma,"[5]; female rats, 100 mg/kg by probang, five times within 2 days (control 69 ± 28)",72 ± 18 mg/100 ml
same,Triglyceride value in blood plasma,"[5]; female rats, 1000 mg/kg by probang, five times within 2 days (control 69 ± 28)",30 ± 8 mg/100 ml
same,Triglyceride value in blood plasma,"[5]; male rats, 10 mg/kg by probang, five times within 2 days (control 201 ± 39)",158 ± 56 mg/100 ml
same,Triglyceride value in blood plasma,"[5]; male rats, 100 mg/kg by probang, five times within 2 days (control 201 ± 39)",173 ± 18 mg/100 ml
same,Triglyceride value in blood plasma,"[5]; male rats, 1000 mg/kg by probang, five times within 2 days (control 201 ± 39)",41 ± 19 mg/100 ml
same,"Tumor area in mm^2, Day 29","[6]; five times per week for 4 weeks, Day 29 (control 5926)",1694 mm^2
same,"Change in tumor area, Day 29","[6]; five times per week for 4 weeks, Day 29 vs Day 1 (control +394%)",+30%
same,"Tumor area in mm^2, Day 1","[6]; five times per week, Day 1",1300 mm^2
same,"Tumor area in mm^2, Day 15 after the commencement of treatment","[6]; five times per week, Day 15 (control 2880)",1416 mm^2
same,"Change in tumor area, Day 15","[6]; five times per week, Day 15 vs Day 1 (control +140%)",+9%
same,activity at 1 µM,[7]; [10],54%
same,activity at 0.1 µM,[7]; [10],46%
same,activity at 0.01 µM,[7]; [10],46%
same,activity at 0.001 µM,[7]; [10],104%
same,activity at 1 µM,[7]; [11],45%
same,activity at 0.1 µM,[7]; [11],70%
same,activity at 0.01 µM,[7]; [11],74%
same,activity at 0.001 µM,[7]; [11],75%
same,Relative activity (antimetaplastic),[1],66.6%
same,Epithelium protection effect (=anti-metaplastic effect) reduced by the factor,[1]; compared with all-trans vitamin A acid,0.67
same,Antimetaplastic effect (average effective / protective dosage),[1],53.6 µg
same,activity at 1 µM,[8]; [12],25%
same,activity at 0.1 µM,[8]; [12],46%
same,activity at 0.01 µM,[8]; [12],60%
same,activity at 0.001 µM,[8]; [12],90%
same,activity at 1 µM,[8]; [13],54%
same,activity at 0.1 µM,[8]; [13],94%
same,activity at 0.01 µM,[8]; [13],98%
same,activity at 0.001 µM,[8]; [13],100%
same,% tumor-bearing rats,[9]; 30 mg/kg daily oral,69.6%
same,Average number of tumors per rat,[9]; 30 mg/kg daily oral,3.0
same,Average tumor volume per rat in mm^3,[9]; 30 mg/kg daily oral,4904 mm^3
same,"% tumor-bearing rats, relative to control (100%)",[9]; 30 mg/kg daily oral,88%
same,"Average number of tumors per rat, relative to control (100%)",[9]; 30 mg/kg daily oral,81%
same,"Average tumor volume per rat, relative to control (100%)",[9]; 30 mg/kg daily oral,77%
same,% tumor-bearing rats,[9]; 90 mg/kg daily oral,63.8%
same,Average number of tumors per rat,[9]; 90 mg/kg daily oral,1.8
same,Average tumor volume per rat in mm^3,[9]; 90 mg/kg daily oral,2879 mm^3
same,"% tumor-bearing rats, relative to control (100%)",[9]; 90 mg/kg daily oral,80%
same,"Average number of tumors per rat, relative to control (100%)",[9]; 90 mg/kg daily oral,48%
same,"Average tumor volume per rat, relative to control (100%)",[9]; 90 mg/kg daily oral,45%
same,% tumor-bearing rats,[9]; 270 mg/kg daily oral,39.3%
same,Average number of tumors per rat,[9]; 270 mg/kg daily oral,0.7
same,Average tumor volume per rat in mm^3,[9]; 270 mg/kg daily oral,543 mm^3
same,"% tumor-bearing rats, relative to control (100%)",[9]; 270 mg/kg daily oral,50%
same,"Average number of tumors per rat, relative to control (100%)",[9]; 270 mg/kg daily oral,18%
same,"Average tumor volume per rat, relative to control (100%)",[9]; 270 mg/kg daily oral,9%
